Source: patent publication US7687079B2, “Methods of treating ileus” (priority 2002, dated 2010)

Tests used:
ICAM-1 mRNA = ICAM-1 mRNA expression in muscularis externae of intestinal grafts (real time RT-PCR); format: in vivo, rat; settings: SITx recipients treated with CO, 4 hours after reperfusion
Method: (§1) The effects of inhalation of CO on transplant-induced pro-inflammatory and anti-inflammatory gene expression was assessed in muscularis extracts by RT-PCR. Muscularis extemae was collected from normal intestine and transplanted grafts 4 hours postoperatively and snap frozen in liquid nitrogen. This time point falls within the range of maximum inflammatory mediator expression that occurs between 3 and 6 hours following abdominal incision. Total RNA extraction was performed using the guanidium-thiocyanate phenol-chloroform extraction method as described previously (Eskandari et al., Am. J. Clin. Pathol. 75(3):367-370 (1997)). RNA pellets were resuspended in RNA-secure resuspension solution (Ambion Inc., Austin, Tex.), followed by removal of potentially contaminating DNA by treatment with DNase I (DNA-Free Kit, Ambion Inc., Austin, Tex.). Equal aliquots (5 μg) of total RNA from each sample were quantified by spectrophotometry (wavelength […]) and aliquoted at a concentration of 40 ng/μl. Peak mRNA expression was quantified in duplicate by SYBR Green two-step, real-time RT-PCR. […] Real-time PCR data were plotted as the ΔRn, fluorescence signal versus the cycle number. […] Quantification of mRNA expression was normalized to GAPDH and calculated relative to control using the comparative CT method (Schmittgen et al., J. Biochem. Biophys. Methods 46(1-2):69-8 (2000)). […]

iNOS mRNA = iNOS mRNA expression in muscularis of transplanted grafts (real time RT-PCR); format: in vivo, rat; settings: CO-treated SITx rats, 4 hours after reperfusion; p=0.060
Method: as §1

[1] = general observations after intestinal manipulation and CO exposure; format: in vivo, mouse; settings: mice, CO 250 ppm, 1 hour before and 24 hours after laparotomy
Source text: Surgical Manipulation. Mice were anesthetized with inhaled isoflurane and the abdomen opened by midline laparotomy. The small intestine was eventrated and gently compressed along its entire length using moistened sterile cotton applicators. This procedure is designed to simulate “running” of the bowel commonly performed during abdominal surgery in the clinical setting. The bowel was repositioned in the abdominal cavity and the incision closed by two layers of continuous sutures. The duration of the procedure was approximately 15 minutes and the animals moved freely about their cage within 20 minutes of withdrawal of anesthetic.
CO Inhalation Treatment. Mice housed in cages were placed in plexiglass chambers that were continuously ventilated with air or with air containing CO (250 ppm). A sampling port was provided to continuously monitor carbon monoxide concentrations within the chamber. Animals had free access to food and water at all times. Mice were exposed to CO or air 1 hour prior to laparotomy, removed for surgical manipulation, and then returned to the chamber for 24 hours. Mice not undergoing surgery were removed from the chamber for a similar length of time and then returned to the chamber for 24 hours.

IL-1β protein = IL-1β protein release from muscularis extracts (ELISA); format: in vivo, mouse
Method: Protein and Nitric Oxide Determinations. The small bowel of control and mice subjected to intestinal manipulation was removed under sterile conditions, 4 or 24 hours post-operatively, leaving the colon in situ. The small intestine was transferred to a beaker containing chilled Hanks balanced salt solution (Sigma, St. Louis, Mo.) with 200 U/ml penicillin G and 200 μg/ml streptomycin (HBSS), the lumen flushed, and the tissue transferred to a second beaker of HBSS. The muscularis was harvested as described above for real time RT-PCR. Tissues were maintained under sterile conditions at 3 to 5° C. throughout the harvesting procedure. Isolated muscularis was blotted onto sterile gauze, and the wet weight determined to obtain aliquots of 40 to 60 mg. Tissue aliquots were washed twice in HBSS, transferred to 35 mm well culture plates containing 3 ml of serum-free DMEM containing penicillin/streptomycin, and incubated for 24 hrs in a humidified 5% CO2 incubator at 37° C. Pharmacological agents added to the culture medium were filter sterilized prior to use.
After the incubation period, the muscle tissue was pelleted, and aliquots of culture medium were frozen in liquid nitrogen and stored at −80° C. The levels of IL-6, IL-1β, PGE2, and IL-10 proteins secreted into the culture medium were determined using commercially available ELISA kits (R&D Systems, Minneapolis, Minn.) according to the manufacturer's instructions. Nitric oxide (NO) released into the culture medium was estimated by measuring the stable end products of NO metabolism. Nitrate/nitrate levels were measured 24 hrs postoperatively using commercially available test kit (Oxford Biomedical Research, Oxford, Mich.) and quantified according to the manufacturer's directions. In this assay system, nitrate is reduced to nitrite using granulated cadmium, and the total nitrite concentration is subsequently measured using the Griess reaction. All measurements were normalized to tissue wet weight.

For [C-]#[O+] [CO, carbon monoxide], the ICAM-1 expression (ICAM-1 mRNA) was “unchanged”, the “reduction of mean relative iNOS mRNA expression” value (iNOS mRNA) was “approximately 50%” and the “mortality or morbidity associated with the CO exposure regime” value [1] was “No mortality or morbidity”. For the same compound, the IL-1β protein release (IL-1β protein; IM + CO vs IM, 24 hr after surgery) was “significantly attenuated”, the “reduction of IL-1β protein release” value (IL-1β protein; IM + CO vs IM, extracts harvested 24 hr after surgery) was 60% and the IL-1β protein (IL-1β protein; control mice treated with CO) was “no IL-1β protein could be detected”.
